Test results taken from the supplement of paper PMC10307832.

Columns and labels:
Experiment in all cases: relative viability (nuclei count vs DMSO), 5 days (fraction); higher = more cells survive
[1] = test system: NCI-H520
Summary of the method: (§1)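 Relative viability is defined as nuclei in treated wells over nuclei in vehicle wells. Duplicate plates were run and medians reported. Lung cancer cell lines in 1536-well plates were dosed by pin tool one day after seeding, with one drug or with a fixed anchor-drug dose plus five library-drug doses (not always all listed) in √10 steps, and nuclei were counted after 5 days.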

[2] = test system: NCI-H358
Summary of the method: as §1

[3] = test system: LCLC-103H
Summary of the method: as §1

[4] = test system: LU99A
Summary of the method: as §1

[5] = test system: HCC-827
Summary of the method: as §1

[6] = test system: NCI-H1793
Summary of the method: as §1

[7] = test system: SK-LU-1
Summary of the method: as §1

[8] = test system: CAL-12T
Summary of the method: as §1

[9] = test system: NCI-H2347
Summary of the method: as §1

[10] = test system: HCC-44
Summary of the method: as §1

[11] = test system: RERF-LC-KJ
Summary of the method: as §1

[12] = test system: NCI-H322M
Summary of the method: as §1

[13] = test system: NCI-H1755
Summary of the method: as §1

[14] = test system: NCI-H2126
Summary of the method: as §1

[15] = test system: ChaGo-K-1
Summary of the method: as §1

[16] = test system: NCI-H1666
Summary of the method: as §1

[17] = test system: NCI-H1944
Summary of the method: as §1

[18] = test system: NCI-H3122
Summary of the method: as §1

[19] = test system: NCI-H1395
Summary of the method: as §1

[20] = test system: LXF-289
Summary of the method: as §1

[21] = test system: NCI-H1792
Summary of the method: as §1

Structure (SMILES): Cc1csc(=NC2CCCCC2)n1/N=C/c1ccc(O)c(O)c1O [MIM1] + Nc1nc2[nH]cc(CCc3ccc(C(=O)N[C@@H](CCC(=O)O)C(=O)O)cc3)c2c(=O)[nH]1 [Pemetrexed] (partner 0.2 µM)
- relative viability ([1]; first compound 0.2 µM): 0.693
- relative viability ([1]; first compound 0.6325 µM): 0.722
- relative viability ([1]; first compound 2 µM): 0.752
- relative viability ([1]; first compound 6.325 µM): 0.547
- relative viability ([1]; first compound 20 µM): 0.306
- relative viability ([2]; first compound 0.2 µM): 0.181
- relative viability ([2]; first compound 0.6325 µM): 0.17
- relative viability ([2]; first compound 2 µM): 0.182
- relative viability ([2]; first compound 6.325 µM): 0.152
- relative viability ([2]; first compound 20 µM): 0.144
- relative viability ([3]; first compound 0.2 µM): 0.413
- relative viability ([3]; first compound 0.6325 µM): 0.499
- relative viability ([3]; first compound 2 µM): 0.456
- relative viability ([3]; first compound 6.325 µM): 0.466
- relative viability ([3]; first compound 20 µM): 0.393
- relative viability ([4]; first compound 0.2 µM): 0.178
- relative viability ([4]; first compound 0.6325 µM): 0.193
- relative viability ([4]; first compound 2 µM): 0.175
- relative viability ([4]; first compound 6.325 µM): 0.17
- relative viability ([4]; first compound 20 µM): 0.16
- relative viability ([5]; first compound 0.2 µM): 0.275
- relative viability ([5]; first compound 0.6325 µM): 0.249
- relative viability ([5]; first compound 2 µM): 0.263
- relative viability ([5]; first compound 6.325 µM): 0.246
- relative viability ([5]; first compound 20 µM): 0.167
- relative viability ([6]; first compound 0.2 µM): 0.937
- relative viability ([6]; first compound 2 µM): 1.13
- relative viability ([6]; first compound 6.325 µM): 0.848
- relative viability ([6]; first compound 20 µM): 0.936
- relative viability ([7]; first compound 0.2 µM): 0.995
- relative viability ([7]; first compound 0.6325 µM): 1.09
- relative viability ([7]; first compound 2 µM): 0.972
- relative viability ([7]; first compound 6.325 µM): 0.892
- relative viability ([7]; first compound 20 µM): 0.694
- relative viability ([8]; first compound 0.2 µM): 1.25
- relative viability ([8]; first compound 0.6325 µM): 1.07
- relative viability ([8]; first compound 2 µM): 1.04
- relative viability ([8]; first compound 6.325 µM): 0.847
- relative viability ([8]; first compound 20 µM): 0.925
- relative viability ([9]; first compound 0.2 µM): 0.465
- relative viability ([9]; first compound 0.6325 µM): 0.422
- relative viability ([9]; first compound 2 µM): 0.415
- relative viability ([9]; first compound 6.325 µM): 0.421
- relative viability ([9]; first compound 20 µM): 0.399
- relative viability ([10]; first compound 0.2 µM): 0.689
- relative viability ([10]; first compound 0.6325 µM): 0.566
- relative viability ([10]; first compound 2 µM): 0.601
- relative viability ([10]; first compound 6.325 µM): 0.468
- relative viability ([10]; first compound 20 µM): 0.401
- relative viability ([11]; first compound 0.2 µM): 0.47
- relative viability ([11]; first compound 0.6325 µM): 0.466
- relative viability ([11]; first compound 2 µM): 0.369
- relative viability ([11]; first compound 6.325 µM): 0.361
- relative viability ([11]; first compound 20 µM): 0.165
- relative viability ([12]; first compound 0.2 µM): 0.614
- relative viability ([12]; first compound 0.6325 µM): 0.58
- relative viability ([12]; first compound 2 µM): 0.558
- relative viability ([12]; first compound 6.325 µM): 0.557
- relative viability ([12]; first compound 20 µM): 0.543
- relative viability ([13]; first compound 0.2 µM): 0.377
- relative viability ([13]; first compound 0.6325 µM): 0.419
- relative viability ([13]; first compound 2 µM): 0.41
- relative viability ([13]; first compound 6.325 µM): 0.41
- relative viability ([13]; first compound 20 µM): 0.269
- relative viability ([14]; first compound 0.2 µM): 0.643
- relative viability ([14]; first compound 0.6325 µM): 0.67
- relative viability ([14]; first compound 2 µM): 0.675
- relative viability ([14]; first compound 6.325 µM): 0.563
- relative viability ([14]; first compound 20 µM): 0.399
- relative viability ([15]; first compound 0.2 µM): 0.255
- relative viability ([15]; first compound 0.6325 µM): 0.269
- relative viability ([15]; first compound 2 µM): 0.263
- relative viability ([15]; first compound 6.325 µM): 0.257
- relative viability ([15]; first compound 20 µM): 0.189
- relative viability ([16]; first compound 0.2 µM): 0.853
- relative viability ([16]; first compound 0.6325 µM): 0.848
- relative viability ([16]; first compound 2 µM): 0.826
- relative viability ([16]; first compound 6.325 µM): 0.666
- relative viability ([16]; first compound 20 µM): 0.627
- relative viability ([17]; first compound 0.2 µM): 0.586
- relative viability ([17]; first compound 0.6325 µM): 0.613
- relative viability ([17]; first compound 2 µM): 0.478
- relative viability ([17]; first compound 6.325 µM): 0.381
- relative viability ([17]; first compound 20 µM): 0.233
- relative viability ([18]; first compound 0.2 µM): 0.195
- relative viability ([18]; first compound 0.6325 µM): 0.194
- relative viability ([18]; first compound 2 µM): 0.219
- relative viability ([18]; first compound 6.325 µM): 0.148
- relative viability ([18]; first compound 20 µM): 0.245
- relative viability ([19]; first compound 0.2 µM): 0.848
- relative viability ([19]; first compound 0.6325 µM): 0.743
- relative viability ([19]; first compound 2 µM): 0.8
- relative viability ([19]; first compound 6.325 µM): 0.697
- relative viability ([19]; first compound 20 µM): 0.341
- relative viability ([20]; first compound 0.2 µM): 0.9
- relative viability ([20]; first compound 0.6325 µM): 0.737
- relative viability ([20]; first compound 2 µM): 0.891
- relative viability ([20]; first compound 6.325 µM): 0.715
- relative viability ([20]; first compound 20 µM): 0.453
- relative viability ([21]; first compound 0.2 µM): 0.682
- relative viability ([21]; first compound 0.6325 µM): 0.644
- relative viability ([21]; first compound 2 µM): 1.02
- relative viability ([21]; first compound 6.325 µM): 0.716
- relative viability ([21]; first compound 20 µM): 0.685
